Data taken from ChEMBL document CHEMBL3885881, “DrugMatrix”.

Organism: Rattus norvegicus
Assay: DrugMatrix - Regimen: Daily Repeat
Type: toxicity, organism-based, Sprague-Dawley
Design: regimen Daily Repeat, gender Male, age 6-8 weeks
Settings: in vivo, po, route oral GAVAGE, vehicle .5 % CMC; for BASOPHIL / EOSINOPHIL / ERYTHROCYTE COUNT / HEMATOCRIT / HEMOGLOBIN / LEUKOCYTE COUNT / LYMPHOCYTE / MEAN CORPUSCULAR HEMOGLOBIN / MEAN CORPUSCULAR HEMOGLOBIN CONCENTRATION / MEAN CORPUSCULAR VOLUME / MONOCYTE / NEUTROPHIL / PLATELET COUNT: tissue Blood; for ALANINE AMINOTRANSFERASE / ALBUMIN / ALKALINE PHOSPHATASE / ASPARTATE AMINOTRANSFERASE / BLOOD UREA NITROGEN / CHLORIDE / CHOLESTEROL / CREATINE PHOSPHOKINASE / CREATININE / GLUCOSE / PHOSPHORUS / POTASSIUM / SODIUM / TOTAL BILIRUBIN / TOTAL PROTEIN: tissue Plasma
[1] = 69 mg/kg, 72 h, dose level High, time 3 day
[2] = 69 mg/kg, 120 h, dose level High, time 5 day
[3] = […], 72 h, dose 6.9 mg/Kg, dose level Low, time 3 day
[4] = […], 120 h, dose 6.9 mg/Kg, dose level Low, time 5 day

COc1ccc(Cc2nccc3cc(OC)c(OC)cc23)cc1OC [PAPAVERINE]
BASOPHIL [1]: 0% | EOSINOPHIL [1]: 0.33% | ERYTHROCYTE COUNT [1]: 6.13 x10E6/uL | HEMATOCRIT [1]: 36.97% | HEMOGLOBIN [1]: 14.43 G/DL | LEUKOCYTE COUNT [1]: 10.73 x10E3/uL | LYMPHOCYTE [1]: 85% | MEAN CORPUSCULAR HEMOGLOBIN [1]: 23.67 pg | MEAN CORPUSCULAR HEMOGLOBIN CONCENTRATION [1]: 39.07 G/DL | MEAN CORPUSCULAR VOLUME [1]: 60.5 fL | MONOCYTE [1]: 1% | NEUTROPHIL [1]: 13.67% | PLATELET COUNT [1]: 1169 x10E3/uL | ALANINE AMINOTRANSFERASE [1]: 36.33 u/L | ALBUMIN [1]: 3.83 G/DL | ALKALINE PHOSPHATASE [1]: 289.67 u/L | ASPARTATE AMINOTRANSFERASE [1]: 57.33 u/L | BLOOD UREA NITROGEN [1]: 13.67 mg/dL | CHLORIDE [1]: 107.67 MEQ/L | CHOLESTEROL [1]: 66.33 mg/dL | CREATINE PHOSPHOKINASE [1]: 129.67 u/L | CREATININE [1]: 0.5 mg/dL | GLUCOSE [1]: 195.67 mg/dL | PHOSPHORUS [1]: 11.97 mg/dL | POTASSIUM [1]: 6.9 MEQ/L | SODIUM [1]: 152.33 MEQ/L | TOTAL BILIRUBIN [1]: 0.3 mg/dL | TOTAL PROTEIN [1]: 6.13 G/DL | BASOPHIL [2]: 0% | EOSINOPHIL [2]: 0% | ERYTHROCYTE COUNT [2]: 5.8 x10E6/uL | HEMATOCRIT [2]: 35.07% | HEMOGLOBIN [2]: 14.43 G/DL | LEUKOCYTE COUNT [2]: 15.23 x10E3/uL | LYMPHOCYTE [2]: 84.33% | MEAN CORPUSCULAR HEMOGLOBIN [2]: 24.97 pg | MEAN CORPUSCULAR HEMOGLOBIN CONCENTRATION [2]: 41.27 G/DL | MEAN CORPUSCULAR VOLUME [2]: 60.43 fL | MONOCYTE [2]: 3.67% | NEUTROPHIL [2]: 12% | PLATELET COUNT [2]: 973 x10E3/uL | ALANINE AMINOTRANSFERASE [2]: 34 u/L | ALBUMIN [2]: 3.67 G/DL | ALKALINE PHOSPHATASE [2]: 334 u/L | ASPARTATE AMINOTRANSFERASE [2]: 56.33 u/L | BLOOD UREA NITROGEN [2]: 12.33 mg/dL | CHLORIDE [2]: 105.33 MEQ/L | CHOLESTEROL [2]: 57.67 mg/dL | CREATINE PHOSPHOKINASE [2]: 142.67 u/L | CREATININE [2]: 0.57 mg/dL | GLUCOSE [2]: 174.33 mg/dL | PHOSPHORUS [2]: 11.33 mg/dL | POTASSIUM [2]: 7 MEQ/L | SODIUM [2]: 149.67 MEQ/L | TOTAL BILIRUBIN [2]: 0.43 mg/dL | TOTAL PROTEIN [2]: 5.8 G/DL | BASOPHIL [3]: 0% | EOSINOPHIL [3]: 0.33% | ERYTHROCYTE COUNT [3]: 5.94 x10E6/uL | HEMATOCRIT [3]: 35.17% | HEMOGLOBIN [3]: 14.13 G/DL | LEUKOCYTE COUNT [3]: 12.43 x10E3/uL | LYMPHOCYTE [3]: 87.33% | MEAN CORPUSCULAR HEMOGLOBIN [3]: 23.8 pg | MEAN CORPUSCULAR HEMOGLOBIN CONCENTRATION [3]: 40.2 G/DL | MEAN CORPUSCULAR VOLUME [3]: 59.13 fL | MONOCYTE [3]: 2.33% | NEUTROPHIL [3]: 10% | PLATELET COUNT [3]: 1083 x10E3/uL | ALANINE AMINOTRANSFERASE [3]: 43.67 u/L | ALBUMIN [3]: 3.7 G/DL | ALKALINE PHOSPHATASE [3]: 347.67 u/L | ASPARTATE AMINOTRANSFERASE [3]: 64.67 u/L | BLOOD UREA NITROGEN [3]: 11.67 mg/dL | CHLORIDE [3]: 107 MEQ/L | CHOLESTEROL [3]: 64.33 mg/dL | CREATINE PHOSPHOKINASE [3]: 170 u/L | CREATININE [3]: 0.5 mg/dL | GLUCOSE [3]: 172 mg/dL | PHOSPHORUS [3]: 11.1 mg/dL | POTASSIUM [3]: 6.23 MEQ/L | SODIUM [3]: 149 MEQ/L | TOTAL BILIRUBIN [3]: 0.37 mg/dL | TOTAL PROTEIN [3]: 5.77 G/DL | BASOPHIL [4]: 0% | EOSINOPHIL [4]: 0.33% | ERYTHROCYTE COUNT [4]: 6.2 x10E6/uL | HEMATOCRIT [4]: 37.4% | HEMOGLOBIN [4]: 15.4 G/DL | LEUKOCYTE COUNT [4]: 12.83 x10E3/uL | LYMPHOCYTE [4]: 87.33% | MEAN CORPUSCULAR HEMOGLOBIN [4]: 24.87 pg | MEAN CORPUSCULAR HEMOGLOBIN CONCENTRATION [4]: 41.17 G/DL | MEAN CORPUSCULAR VOLUME [4]: 60.33 fL | MONOCYTE [4]: 1.33% | NEUTROPHIL [4]: 11% | PLATELET COUNT [4]: 1006 x10E3/uL | ALANINE AMINOTRANSFERASE [4]: 35 u/L | ALBUMIN [4]: 3.73 G/DL | ALKALINE PHOSPHATASE [4]: 374.33 u/L | ASPARTATE AMINOTRANSFERASE [4]: 60.33 u/L | BLOOD UREA NITROGEN [4]: 12.33 mg/dL | CHLORIDE [4]: 108.33 MEQ/L | CHOLESTEROL [4]: 61.33 mg/dL | CREATINE PHOSPHOKINASE [4]: 131.67 u/L | CREATININE [4]: 0.6 mg/dL | GLUCOSE [4]: 168.67 mg/dL | PHOSPHORUS [4]: 10.03 mg/dL | POTASSIUM [4]: 6.13 MEQ/L | SODIUM [4]: 153.67 MEQ/L | TOTAL BILIRUBIN [4]: 0.33 mg/dL | TOTAL PROTEIN [4]: 5.97 G/DL
